Results reported in article PMC12298351, “Novel 3,19-(N-Phenyl-3-(4-fluorophenyl)-pyrazole) Acetal of Andrographolide Promotes Cell Cycle Arrest and Apoptosis in MDA-MB-231 Breast Cancer Cells” (Pharmaceuticals, 2025).

Experiments:
[1] = DPPH radical scavenging assay; details: 25 µM test compound, 0.1 mM DPPH, acetonitrile, 30 min
Procedure: A stable free radical DPPH (2,2-Diphenyl-1-picrylhydrazyl) assay was employed to test the antioxidant activity of all the synthesized compounds. Concisely, 25 µM of the test compounds were dissolved in acetonitrile and combined with 0.1 mM of DPPH (in acetonitrile) in a 1:2 ratio (80 µL and 160 µL). Then, the mixture was left undisturbed in the dark for 30 min at room temperature. After 30 min, the absorbance of the solutions was instantly measured at 517 nm using a Varioskan Multiplate Reader (Thermo Fisher Scientific, Mumbai, India). Ascorbic acid (in acetonitrile) was used as the positive control, and andrographolide and isoandrogapholide (in acetonitrile) were used as the standards. The following equation was used to determine the DPPH radical scavenging activity:% Radical scavenging activity = (Ac − As)/Ac × 100 where Ac = the absorbance of the blank (DPPH solution), and As = the absorbance of the test samples

[2] = system: 60 human cancer cell lines; assay: NCI single-dose study; type: cell-based; details: single dose 10 µM, all 60 cell lines
Excerpt: All the synthesized compounds (1a–1j and 2a–2j) were initially assessed for their anticancer potential at the National Cancer Institute (NCI, USA) against a diverse panel of 60 human cancer cell lines, representing nine distinct cancer types including leukemia, non-small-cell lung, colon, CNS, melanoma, ovarian, renal, prostate, and breast. The testing protocol employed by the NCI encompasses two stages: initial assessment at a single dose and subsequent evaluation at five doses.
Initially, a comprehensive anticancer screening of all twenty compounds (1a–1j and 2a–2j), including the parent compounds ADG and ISOADG, was conducted using a 10 µM dose across all 60 cell lines (a standardized protocol followed for the initial assessment of test compounds by the NCI). […] As a result, these ten compounds were chosen for five-dose studies.

Row | Structure (SMILES) | % DPPH radical scavenging activity [1] [%] | % growth inhibition [2]
1 | O=C1O[C@H]([C@@H](O)CO)C(O)=C1O [ascorbic acid, reference compound] | 69.26 | –
2 | C=C1CC[C@@H]2[C@](C)(CO)[C@H](O)CC[C@@]2(C)[C@@H]1C/C=C1/C(=O)OC[C@H]1O [ADG, andrographolide] | 58.74 | lower % growth inhibition
3 | CC12CC[C@@H]3[C@](C)(CO)[C@H](O)CC[C@@]3(C)[C@@H]1CC(C1=CCOC1=O)O2 (some centres unmarked) [ISOADG, isoandrographolide, reference compound] | 57.94 | lower % growth inhibition
